# Test results from US9296778B2, “3′,5′-cyclic phosphate prodrugs for HCV infection” (Idenix Pharmaceuticals, Inc., priority 2012, dated 2016).
# Like-named read-outs stand apart in the source and are kept apart here.
# What was measured:
# HCV genotype 1b replicon = assay: HCV Replicon Assay; format: cell-based; conditions: Zluc cells (Huh-7-derived, HCV genotype 1b replicon, luciferase reporter), 72 hours, read-out: HCV Replicon EC50
# Description: Huh-7-derived cell line (Zluc) that harbors an HCV genotype 1b replicon and a luciferase reporter gene was grown in Dulbecco's Modified Eagle Medium (DMEM) supplemented with 10% fetal bovine serum, 2 mM GlutaMAX, 1% MEM nonessential amino acids, 100 IU/mL penicillin, 100 μg/mL streptomycin, and 0.5 mg/mL Geneticin® (G418). For dose response testing the cells were seeded in 96-well plates at 7.5×10^3 cells per well in a volume of 50 μL, and incubated at 37° C./5% CO2. Drug solutions were made up freshly in Huh-7 media as 2× stocks. Ten additional 5-fold dilutions were prepared from these stocks in DMEM without G418. At least three hours after Zluc cells were seeded, drug treatment was initiated by adding 50 μL of drug dilutions to the plates in duplicate. Final concentrations of drug ranged from 100 μM to […]. Cells were then incubated at 37° C./5% CO2. Alternatively, compounds were tested at two concentrations (1 μM and 10 μM). […] For this, media was removed from the plates via gentle tapping. Fifty microliters of ONE-glo luciferase assay reagent was added to each well. The plates were shaken gently for 3 min at room temperature and luminescence was measured on a Victor^3 V 1420 multilabel counter (Perkin Elmer) with a 1 second read time using a 700 nm cut-off filter. The EC50 values were calculated from dose response curves from the resulting best-fit equations determined by Microsoft Excel and XLfit 4.1 software. When screening at two fixed concentrations, the results were expressed as % inhibition at 1 μM and 10 μM.
# Zluc cells = assay: cytotoxicity evaluation (CellTiter-Blue Cell Viability Assay); conditions: read-out: HCV Replicon CC50; Zluc cells, CellTiter-Blue
# fresh human hepatocytes = assay: Release of active metabolite in fresh human hepatocytes; format: in vitro ADME; conditions: 10 μM compound; for FHH TP Cmax: fresh human hepatocytes; for FHH TP AUC: fresh human hepatocytes, 6, 24 and 48 hours
# Description: Plates of fresh human and mouse hepatocytes were obtained on ice. The medium was removed and replaced with hepatocyte culture medium (William's E supplemented with penicillin-streptomycin, 1% L-glutamine, 1% insulin-transferrin-selenium and 0.1 μM Dexamethasone (Invitrogen) or with Invitro GRO HI medium complemented with Torpedo antibiotics (Celsis)). Cells were left overnight in an incubator at 37° C. to acclimatize to culture and the medium.
# Hepatocyte incubations were conducted at a final volume of 0.5 mL hepatocyte culture medium/well (0.8 million cells/well for human and 0.5 million cells/well for mouse; 12 well plate no overlay, collagen coat). Culture medium from overnight incubation of cells was removed and replaced with fresh medium, pre-warmed to 37° C., containing 10 μM of test compound from a stock solution in DMSO (final DMSO concentration was 0.1%). At each specific time point, incubation medium was removed and cell monolayers were carefully washed two times with ice-cold PBS. Following the last wash, all PBS was carefully removed and 1.0 mL of extraction solution (ice-cold 70% methanol/30% water) added. Cells were scraped off and suspended in the extraction solution, transferred to 2 mL polypropylene microfuge tubes and intracellular contents extracted overnight at −20° C.
# After the overnight treatment the cellular extracts were prepared by centrifugation at 16,000×g for 10 min to remove cellular debris. The remaining sample was then dried using a refrigerated centrivap concentrator. Dry extracts were reconstituted in 1000 μL of HPLC-grade water and centrifuged at 16,000×g for 10 min. Aliquots (100 μL each) of the supernatant were transferred into a 96 well plate and internal standard (4 ng/mL final concentration) was added as the internal standard (IS) for LC-MS/MS analysis.
# The incubation time points were 6, 24 and 48 hours for human hepatocytes and 1, 4, 8, 12 and 24 hours for mouse hepatocytes.
# in vitro = conditions: human, HCV Replicon CC50, Zluc cells, CellTiter-Blue
SMILES,EC50 (HCV genotype 1b replicon) [nM],CC50 (Zluc cells) [nM],FHH TP Cmax (fresh human hepatocytes),FHH TP AUC (fresh human hepatocytes),"EC50 (HCV genotype 1b replicon; Hepatitis C virus, 72 h) [nM]",CC50 (in vitro) [nM]
"CCOc1nc(N)nc2c1ncn2[C@@H]1O[C@@H]2COP(=O)(OC[C@H](C)NC(=O)OCC(C)C)O[C@H]2[C@@]1(C)F (single isomer, unassigned; diastereomer 1) [Compound 12 Diastereomer 1]",< 250,> 50000,–,–,–,–
"CCOc1nc(N)nc2c1ncn2[C@@H]1O[C@@H]2COP(=O)(OCCSC(=O)C(C)(C)CO)O[C@H]2[C@@]1(C)OC(C)=O (single isomer, unassigned; diastereomer 1) [Compound 16 Diastereomer 1]",< 250,< 50000,–,–,–,–
"CC(C)(CO)C(=O)SCCOP1(=O)OC[C@H]2O[C@@H](n3cnc4c(=O)[nH]c(N)nc43)[C@](C)(F)[C@@H]2O1 (single isomer, unassigned; diastereomer 1) [Compound 17 Diastereomer 1]",250 to 1000,> 50000,–,–,–,–
"CC(=O)OCC(C)(C)C(=O)SCCOP1(=O)OC[C@H]2O[C@@H](n3cnc4c(=O)[nH]c(N)nc43)[C@](C)(F)[C@@H]2O1 (single isomer, unassigned; diastereomer 1) [Compound 18 Diastereomer 1]",250 to 1000,> 50000,–,–,–,–
"CCOc1nc(N)nc2c1ncn2[C@@H]1O[C@@H]2COP(=O)(OCCSC(=O)C(C)(C)COC(C)=O)O[C@H]2[C@@]1(C)OC(C)=O (single isomer, unassigned; diastereomer 1) [Compound 19 Diastereomer 1]",< 250,< 50000,–,–,–,–
"CCOc1nc(N)nc2c1ncn2[C@@H]1O[C@@H]2COP(=O)(OCCC(=O)OC(C)C)O[C@H]2[C@@]1(C)O (single isomer, unassigned; diastereomer 1) [Compound 22 Diastereomer 1]",< 250,> 50000,44 pmol/mill cells,1247 pmol · hr/mill cells,–,–
"COc1nc(N)nc2c1ncn2[C@@H]1O[C@@H]2COP(=O)(OCC(=O)OC(C)C)O[C@H]2[C@@]1(C)F (single isomer, unassigned; diastereomer 1) [Compound 26 Diastereomer 1]",–,–,BLD^a,BLD^a,–,–
"CCOC(=O)COP1(=O)OC[C@H]2O[C@@H](n3cnc4c(OCC)nc(N)nc43)[C@](C)(F)[C@@H]2O1 (single isomer, unassigned; diastereomer 2) [Compound 7 Diastereomer 2]",< 250,–,–,–,–,–
"CC(C)(CO)C(=O)SCCOP1(=O)OC[C@H]2O[C@@H](n3cnc4c(=O)[nH]c(N)nc43)[C@](C)(F)[C@@H]2O1 (single isomer, unassigned; diastereomer 2) [Compound 17 Diastereomer 2]",< 250,< 50000,–,–,–,–
"CC(=O)OCC(C)(C)C(=O)SCCOP1(=O)OC[C@H]2O[C@@H](n3cnc4c(=O)[nH]c(N)nc43)[C@](C)(F)[C@@H]2O1 (single isomer, unassigned; diastereomer 2) [Compound 18 Diastereomer 2]",< 250,< 50000,–,–,–,–
"CCOc1nc(N)nc2c1ncn2[C@@H]1O[C@@H]2COP(=O)(OCCSC(=O)C(C)(C)COC(C)=O)O[C@H]2[C@@]1(C)OC(C)=O (single isomer, unassigned; diastereomer 2) [Compound 19 Diastereomer 2]",< 250,< 50000,–,–,–,–
CCOC(=O)N[C@@H](C)COP1(=O)OC[C@H]2O[C@@H](n3cnc4c(OCC)nc(N)nc43)[C@](C)(F)[C@@H]2O1 (stereo partly drawn) [Compound 11],–,–,–,–,< 250,> 50000
CCOc1nc(N)nc2c1ncn2[C@@H]1O[C@@H]2COP(=O)(OC[C@H](NC(=O)OC)C(=O)OC(C)C)O[C@H]2[C@@]1(C)F (stereo partly drawn) [Compound 15],–,–,36 pmol/mill cells,1335 pmol · hr/mill cells,< 250,> 50000
CCOc1nc(N)nc2c1ncn2[C@@H]1O[C@@H]2COP(=O)(OCCC(=O)OC(C)C)O[C@H]2[C@@]1(C)F (stereo partly drawn) [Compound 21],–,–,–,–,< 250,> 50000
CCOC(=O)CCCOP1(=O)OC[C@H]2O[C@@H](n3cnc4c(OC)nc(N)nc43)[C@](C)(O)[C@@H]2O1 (stereo partly drawn) [Compound 25],–,–,–,–,250 to 1000,> 50000
COc1nc(N)nc2c1ncn2[C@@H]1O[C@@H]2COP(=O)(OCC(=O)OC(C)C)O[C@H]2[C@@]1(C)F (stereo partly drawn) [Compound 26],–,–,–,–,< 250,> 50000
COc1nc(N)nc2c1ncn2[C@@H]1O[C@@H]2COP(=O)(OCC(=O)OCc3ccccc3)O[C@H]2[C@@]1(C)O (stereo partly drawn) [Compound 27],–,–,–,–,< 250,< 50000
COc1nc(N)nc2c1ncn2[C@@H]1O[C@@H]2COP(=O)(OCC(=O)OC(C)C)O[C@H]2[C@@]1(C)O (stereo partly drawn) [Compound 28],–,–,–,–,< 250,< 50000
CCOC(=O)CCCOP1(=O)OC[C@H]2O[C@@H](n3cnc4c(OC)nc(N)nc43)[C@](C)(O)[C@@H]2O1 (stereo partly drawn) [Compound 29],< 250,< 50000,–,–,–,–
CCOC(=O)[C@@H](C)OP1(=O)OC[C@H]2O[C@@H](n3cnc4c(OC)nc(N)nc43)C(C)(O)[C@@H]2O1 (stereo partly drawn) [Compound 30],–,–,–,–,1000 to 10000,> 50000
CCOC(=O)C[C@@H](C)OP1(=O)OC[C@H]2O[C@@H](n3cnc4c(OC)nc(N)nc43)[C@](C)(O)[C@@H]2O1 (stereo partly drawn) [Compound 31],–,–,–,–,250 to 1000,> 50000
COc1nc(N)nc2c1ncn2[C@@H]1O[C@@H]2COP(=O)(OCC(=O)OC(C)C)O[C@H]2[C@@]1(C)OC(C)=O (stereo partly drawn) [Compound 32],–,–,–,–,< 250,< 50000
COC(=O)c1ccccc1COP1(=O)OC[C@H]2O[C@@H](n3cnc4c(OC)nc(N)nc43)[C@](C)(O)[C@@H]2O1 (stereo partly drawn) [Compound 33],–,–,–,–,< 250,< 50000
CCOC(=O)OC(C)OP1(=O)OC[C@H]2O[C@@H](n3cnc4c(OC)nc(N)nc43)[C@](C)(O)[C@@H]2O1 (stereo partly drawn) [Compound 34],–,–,–,–,< 250,< 50000
COc1nc(N)nc2c1ncn2[C@@H]1O[C@@H]2COP(=O)(OCCSSCCO)O[C@H]2[C@@]1(C)O (stereo partly drawn) [Compound 37],–,–,–,–,< 250,< 50000
CCOc1nc(N)nc2c1ncn2[C@@H]1O[C@@H]2COP(=O)(OCCCNC(=O)[C@@H]3OC(C)(C)OCC3(C)C)O[C@H]2[C@@]1(C)O (stereo partly drawn) [Compound 38],–,–,–,–,< 250,> 50000
CCOc1nc(N)nc2c1ncn2[C@@H]1O[C@@H]2COP(=O)(OCCCNC(=O)[C@H](O)C(C)(C)CO)O[C@H]2[C@@]1(C)O (stereo partly drawn) [Compound 39],–,–,–,–,< 250,< 50000
